This note sets out measurements from patent publication US20250152616A1, “COMPOSITIONS FOR AND METHODS OF TREATING, PREVENTING, AND/OR MITIGATING PAIN” (Duke University, priority 2022, published 2025).

This assay relates to mouse model of stabilized unilateral tibial fracture. Put plainly: Static weight bearing (incapacitance meter) after tibial fracture. Type of assay: in vivo. The note with it: for ipsilateral weight bearing vs pre-fracture baseline: adenosine-loaded hydrogel at fracture site. The procedure:
The aim of the experiments described herein was to examine the effectiveness of local delivery of adenosine in tibial bone injury to concurrently attenuate fracture/post-surgical pain while promoting healing. All animal work was performed in compliance with the National Institutes of Health (NIH) and institutional guidelines, and the fracture surgery and biomaterial implantation protocols approved by the Institutional Animal Care and Use Committee at Duke University (Protocol Registry Number A151-20-07) were followed. C57BL/6J mice were used to study fracture nociception and the effect of local delivery of adenosine to mitigate pain and promote bone regeneration. Lepr-cre; tdTomato reporter mice were used for tracing of LepR(+) lineage cells after fracture. To determine the effect of adenosine on pain and healing, fracture surgeries were performed and treated immediately with PEGDA-6ACA-PBA macroporous hydrogels loaded with adenosine as treatment group or without adenosine as control group (Zeng Y, et al. (2020) Adv Mater. 32:e1906022). Behavioral tests for pain and limb function were assessed by weight bearing and open field locomotion. A priori power analysis was used to estimate the sample size requiring a statistical power (1−β) of 80% at the significance level of α=5%. On the basis of the power calculation, the indicated number was 8 animals per group for fracture pain and 4 animals per group for fracture healing. Ten animals per group were used to study the effect of adenosine on fracture pain, and 5 animals per group were used to examine the effect of adenosine on fracture healing. The exclusion criteria for experiments were animals that died due to the surgical procedures or shift of the intramedullary pin identified after experimental endpoint post-mortem. No randomization was used and researchers were not blinded. Measurement of adenosine in the circulation was performed by using an adenosine assay. The in vitro functional activity of DRG neurons was assessed by calcium and membrane potential imaging and the expression of proteins were assessed by histology or immunofluorescence imaging, and gene expression by RT-qPCR. Fracture healing was analyzed by microCT and histology. The study design and timeline of animal procedures (pin placement, surgery, therapeutic intervention with and without adenosine, and behavioral tests) are illustrated in FIG. 10A (weight bearing) and FIG. 10A (open field locomotion).
In all experiments, 12-week-old to 16-week-old C57BL/6J male mice (Jackson Laboratory, Bar Harbor, ME) and Lepr-cre; tdTomato reporter mice were used. The average mouse weight was 25 grams and mice were housed in groups of four to five, and kept on a 12-hr light-dark cycle with lights off at 1800 hr. All animals had ad libitum access to chow (PMI LabDiet 5001) and water. Fracture surgeries were performed as previously described (Zeng Y, et al. (2020) Adv Mater. 32:e1906022). Animals were anesthetized by isoflurane and injected with 1 mg/kg buprenorphine SR-LAB (ZooPharm, Laramie, WY). Each mouse was then placed in a supine position with the right tibia disinfected. After skin incision and reflection, proximal to the right knee, a 0.7-mm pin was inserted from the tibial plateau through the medullary cavity to stabilize the tibia, and a cut was made at the tibial midshaft to induce a transverse fracture. Bupivacaine (0.5%; Hospira, Lake Forest, IL) at ˜1 mg/kg body weight was applied at the surgical site following wound closure using 2 reflex clips (5 mm). For animals treated with control and adenosine-loaded macroporous hydrogels, macroporous hydrogels measuring approximately 5 mm (length)×3 mm (width)×1 mm (thick) containing either 1.05±0.1 mg adenosine (ADO) or no adenosine (CTL) were implanted adjacent to the fractures immediately. […] The animals were treated with the macroporous hydrogels with or without adenosine immediately following the fracture. […]

`Nc1ncnc2c1ncn2[C@@H]1O[C@H](CO)[C@@H](O)[C@H]1O` [adenosine]: where the note is “2 dpf and 4 dpf”, the “degree of decrease in weight bearing vs untreated group” value is on record as “less”. Besides, the “percent change in weight bearing from baseline” value is listed as “significant decreases” (2 dpf and 4 dpf); “returned to baseline” (8 dpf). The “ipsilateral weight bearing vs pre-fracture baseline” value was “significantly decreased” (2 days post-fracture) and “returned back to the baseline” (by 8 days post-fracture). Besides, under “each timepoint, effect size r”, the “effect size of treatment on weight bearing” value is recorded as “large effect size”. Further, the “ipsilateral hindlimb weight bearing vs control-treated limbs” value (hydrogel with 1.05±0.1 mg adenosine implanted next to fracture, all post-fracture timepoints (2, 4, 8 dpf)) is reported as “significantly higher”.
